Tests used:
LXRβ = LXRβ (Homo sapiens (Human), UniProt P55055); assay: In vitro assay LXRβ: PathHunter NHR CHO cells, LXRβ / Steroid Receptor Co-activator Peptide enzyme fragment complementation; assay type: cell-based; details: PathHunter NHR CHO cells, full-length human LXRβ and SRCP, chemiluminescent signal; read-out: LXRβ PPI
Method in brief: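 Co-activator recruitment measured by chemiluminescence after signal generation. The CHO line carries full-length human LXRβ tagged with ProLink and an SRCP–enzyme acceptor fusion in the nucleus; cells sat overnight at 37° C before testing, in charcoal-dextran filtered serum medium with 1% final vehicle.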

SREBP-2 = SREBP-2 (Homo sapiens (Human), UniProt Q12772); assay: In vitro assay SREBP-2: PathHunter U2OS SREBP-2 Nuclear Translocation Cell Line, U18666A-stimulated; assay type: cell-based; details: PathHunter U2OS SREBP-2 nuclear translocation cells, U18666A 10 μM, overnight (16 hours)

LXRβ, sequence (P55055 whole entry, the tested form may be a part): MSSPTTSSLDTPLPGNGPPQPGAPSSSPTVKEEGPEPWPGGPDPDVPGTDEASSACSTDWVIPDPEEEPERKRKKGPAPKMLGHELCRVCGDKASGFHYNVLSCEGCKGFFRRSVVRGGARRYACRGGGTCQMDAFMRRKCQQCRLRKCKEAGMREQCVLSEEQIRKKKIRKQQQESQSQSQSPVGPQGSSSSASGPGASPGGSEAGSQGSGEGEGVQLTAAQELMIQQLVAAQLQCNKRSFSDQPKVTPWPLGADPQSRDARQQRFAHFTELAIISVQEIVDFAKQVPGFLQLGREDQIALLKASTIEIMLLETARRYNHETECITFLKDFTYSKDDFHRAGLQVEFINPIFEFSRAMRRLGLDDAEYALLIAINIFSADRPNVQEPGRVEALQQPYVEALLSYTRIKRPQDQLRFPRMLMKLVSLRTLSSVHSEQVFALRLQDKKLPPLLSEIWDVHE

| SMILES | EC50 (LXRβ) [nM] | IC50 (SREBP-2) [nM] |
| --- | --- | --- |
| Cc1ncsc1N1CCN(C(=O)CC[C@@H](C)[C@H]2CC[C@H]3[C@@H]4CC=C5C[C@@H](O)CC[C@]5(C)[C@H]4CC[C@]23C)CC1 [Example 607, (R)-4-((3S,8S,9S,10R,13R,14S,17R)-3-hydroxy-10,13-dimethyl-2,3,4,7,8,9,10,11,12,13,14,15,16,17-tetradecahydro-1H-cyclopenta[a]phenanthren-17-yl)-1-(4-(4-methylthiazol-5-yl)piperazin-1-yl)pentan-1-one] | > 10000 | < 250 |
| CCC(=O)N1CCN(C(=O)CC[C@@H](C)[C@H]2CC[C@H]3[C@@H]4CC=C5C[C@@H](O)CC[C@]5(C)[C@H]4CC[C@]23C)C[C@@H]1C [Example 569, (R)-4-((3S,8S,9S,10R,13R,14S,17R)-3-hydroxy-10,13-dimethyl-2,3,4,7,8,9,10,11,12,13,14,15,16,17-tetradecahydro-1H-cyclopenta [a]phenanthren-17-yl)-1-((S)-3-methyl-4-propionylpiperazin-1-yl)pentan-1-one] | > 10000 | < 250 |
| C[C@@H](NC(=O)C(=O)N(C)C)[C@H]1CC[C@H]2[C@@H]3CC=C4C[C@@H](O)CC[C@]4(C)[C@H]3CC[C@]12C (single isomer, unassigned) [Example 118] | > 10000 | > 10000 |
| C[C@H](CCC(=O)N(C)C)[C@H]1CC[C@H]2[C@@H]3CC=C4C[C@](C)(O)CC[C@]4(C)[C@H]3CC[C@]12C [Example 121, (R)-4-((3R,8S,9S,10R,13R,14S,17R)-3-hydroxy-3,10,13-trimethyl-2,3,4,7,8,9,10,11,12,13,14,15,16,17-tetradecahydro-1H-cyclopenta [a]phenanthren-17-yl) -N,N-dimethylpentanamide] | 1000 to 10000 | > 10000 |
| Cc1nn(C)cc1N1CCN(C(=O)CC[C@@H](C)[C@H]2CC[C@H]3[C@@H]4CC=C5C[C@@H](O)CC[C@]5(C)[C@H]4CC[C@]23C)CC1 [Example 604, (4R)-4-[(1R,3aS,3bS,7S,9aR,9bS,11aR)-7-hydroxy-9a,11a-dimethyl-1H,2H,3H,3aH,3bH,4H,6H,7H,8H,9H,9aH,9bH,10H,11H,11aH-cyclopenta[a]phenanthren-1-yl]-1-[4-(1,3-dimethyl-1H-pyrazol-4-yl)piperazin-1-yl]pentan-1-one] | > 10000 | < 250 |
| Cc1nccc(CC[C@@H](C)[C@H]2CC[C@H]3[C@@H]4CC=C5C[C@@H](O)CC[C@]5(C)[C@H]4CC[C@]23C)n1 [Example 190, (3S,8S,9S,10R,13R,14S,17R)-10,13-dimethyl-17-((R)-4-(2-methylpyrimidin-4-yl)butan-2-yl)-2,3,4,7,8,9,10,11,12,13,14,15,16,17-tetradecahydro-1H-cyclopenta[a]phenanthren-3-ol] | 1000 to 10000 | 250 to 1000 |
| C[C@H](CCC(=O)N1CCC(C)(C)CC1)[C@H]1CC[C@H]2[C@@H]3CC=C4C[C@@H](O)CC[C@]4(C)[C@H]3CC[C@]12C [Example 5, (R)-1-(4,4-dimethylpiperidin-1-yl)-4-((3S,8S,9S,10R,13R,14S,17R)-3-hydroxy-10,13-dimethyl-2,3,4,7,8,9,10,11,12,13,14,15,16,17-tetradecahydro-1H-cyclopenta[a]phenanthren-17-yl)pentan-1-one] | 1000 to 10000 | < 250 |
| C[C@H](CCC(=O)N1CC[C@H](Oc2ccncc2)[C@@H](C)C1)[C@H]1CC[C@H]2[C@@H]3CC=C4C[C@@H](O)CC[C@]4(C)[C@H]3CC[C@]12C [Example 571, (R)-4-((3S,8S,9S,10R,13R,14S,17R)-3-hydroxy-10,13-dimethyl-2,3,4,7,8,9,10,11,12,13,14,15,16,17-tetradecahydro-1H-cyclopenta[a]phenanthren-17-yl)-1-((3S,4S)-3-methyl-4-(pyridin-4-yloxy)piperidin-1-yl)pentan-1-one] | > 10000 | < 250 |
| COc1ccc(CC[C@@H](C)[C@H]2CC[C@H]3[C@@H]4CC=C5C[C@@H](O)CC[C@]5(C)[C@H]4CC[C@]23C)nc1 [Example 601, (1R,3aS,3bS,7S,9aR,9bS,11aR)-1-[(2R)-4-(5-methoxypyridin-2-yl)butan-2-yl]-9a,11a-dimethyl-1H,2H,3H,3aH,3bH,4H,6H,7H,8H,9H,9aH,9bH,10H,11H,11aH-cyclopenta[a]phenanthren-7-ol] | 1000 to 10000 | 250 to 1000 |
| CSC(=O)N1CCN(C(=O)CC[C@@H](C)[C@H]2CC[C@H]3[C@@H]4CC=C5C[C@@H](O)CC[C@]5(C)[C@H]4CC[C@]23C)CC1 [Example 551, (4R)-4-[(1R,3aS,3bS,7S,9aR,9bS,11aR)-7-hydroxy-9a,11a-dimethyl-1H,2H,3H,3aH,3bH,4H,6H,7H,8H,9H,9aH,9bH,10H,11H,11aH-cyclopenta[a]phenanthren-1-yl]-1-{4-[(methylsulfanyl)carbonyl]piperazin-1-yl}pentan-1-one] | > 10000 | < 250 |
| COC(=O)N1CCN(C(=O)CC[C@@H](C)[C@H]2CC[C@H]3[C@@H]4CC=C5C[C@@H](O)CC[C@]5(C)[C@H]4CC[C@]23C)CC1 [Example 360, methyl 4-((R)-4-((3S,8S,9S,10R,13R,14S,17R)-3-hydroxy-10,13-dimethyl-2,3,4,7,8,9,10,11,12,13,14,15,16,17-tetradecahydro-1H-cyclopenta[a]phenanthren-17-yl)pentanoyl)piperazine-1-carboxylate] | > 10000 | < 250 |
| CCc1cccnc1CC[C@@H](C)[C@H]1CC[C@H]2[C@@H]3CC=C4C[C@@H](O)CC[C@]4(C)[C@H]3CC[C@]12C [Example 187, (3S,8S,9S,10R,13R,14S,17R)-17-((R)-4-(3-ethylpyridin-2-yl)butan-2-yl)-10,13-dimethyl-2,3,4,7,8,9,10,11,12,13,14,15,16,17-tetradecahydro-1H-cyclopenta[a]phenanthren-3-ol] | 250 to 1000 | < 250 |
| C[C@H](CCc1cncnc1)[C@H]1CC[C@H]2[C@@H]3CC=C4C[C@@H](O)CC[C@]4(C)[C@H]3CC[C@]12C [Example 171, (3S,8S,9S,10R,13R,14S,17R)-10,13-dimethyl-17-((R)-4-(pyrimidin-5-yl)butan-2-yl)-2,3,4,7,8,9,10,11,12,13,14,15,16,17-tetradecahydro-1H-cyclopenta[a]phenanthren-3-ol] | > 10000 | < 250 |
| COc1nccc(N2CCN(C(=O)CC[C@@H](C)[C@H]3CC[C@H]4[C@@H]5CC=C6C[C@@H](O)CC[C@]6(C)[C@H]5CC[C@]34C)CC2)n1 [Example 202, (R)-4-((3S,8S,9S,10R,13R,14S,17R)-3-hydroxy-10,13-dimethyl-2,3,4,7,8,9,10,11,12,13,14,15,16,17-tetradecahydro-1H-cyclopenta[a]phenanthren-17-yl)-1-(4-(2-methoxypyrimidin-4-yl)piperazin-1-yl) pentan-1-one] | > 10000 | < 250 |
| C[C@H](CCC(=O)N1CC[C@@H](C(O)(C(F)(F)F)C(F)(F)F)C1)[C@H]1CC[C@H]2[C@@H]3CC=C4C[C@@H](O)CC[C@]4(C)[C@H]3CC[C@]12C [Example 98, (R)-1-((R)-3-(1,1,1,3,3,3-hexafluoro-2-hydroxypropan-2-yl)pyrrolidin-1-yl)-4-((3S,8S,9S,10R,13R,14S,17R)-3-hydroxy-10,13-dimethyl-2,3,4,7,8,9,10,11,12,13,14,15,16,17-tetradecahydro-1H-cyclopenta[a]phenanthren-17-yl)pentan-1-one] | > 10000 | < 250 |
| C[C@H](CCC(=O)N1CCN(c2ccncn2)C[C@@H]1C)[C@H]1CC[C@H]2[C@@H]3CC=C4C[C@@H](O)CC[C@]4(C)[C@H]3CC[C@]12C [Example 588, (4R)-4-[(1R,3aS,3bS,7S,9aR,9bS,11aR)-7-hydroxy-9a,11a-dimethyl-1H,2H,3H,3aH,3bH,4H,6H,7H,8H,9H,9aH,9bH,10H,11H,11aH-cyclopenta[a]phenanthren-1-yl]-1-[(2S)-2-methyl-4-(pyrimidin-4-yl)piperazin-1-yl]pentan-1-one] | > 10000 | < 250 |
| CCC1(OC)CCCN(C(=O)CC[C@@H](C)[C@H]2CC[C@H]3[C@@H]4CC=C5C[C@@H](O)CC[C@]5(C)[C@H]4CC[C@]23C)C1 (stereo partly drawn) [Example 519, (R)-1-((R)-3-ethyl-3-methoxypiperidin-1-yl)-4-((3S,8S,9S,10R,13R,14S,17R)-3-hydroxy-10,13-dimethyl-2,3,4,7,8,9,10,11,12,13,14,15,16,17-tetradecahydro-1H-cyclopenta[a]phenanthren-17-yl)pentan-1-one] | 1000 to 10000 | < 250 |
| C[C@H](CCc1ncccn1)[C@H]1CC[C@H]2[C@@H]3CC=C4C[C@@H](O)CC[C@]4(C)[C@H]3CC[C@]12C [Example 133, (1R,3aS,3bS,7S,9aR,9bS,11aR)-9a,11a-dimethyl-1-[(2R)-4-(pyrimidin-2-yl)butan-2-yl]-1H,2H,3H,3aH,3bH,4H,6H,7H,8H,9H,9aH,9bH,10H,11H,11aH-cyclopenta[a]phenanthren-7-ol] | 250 to 1000 | 250 to 1000 |
| Cc1ncncc1CC[C@@H](C)[C@H]1CC[C@H]2[C@@H]3CC=C4C[C@@H](O)CC[C@]4(C)[C@H]3CC[C@]12C [Example 188, (3S,8S,9S,10R,13R,14S,17R)-10,13-dimethyl-17-((R)-4-(4-methylpyrimidin-5-yl)butan-2-yl)-2,3,4,7,8,9,10,11,12,13,14,15,16,17-tetradecahydro-1H-cyclopenta[a]phenanthren-3-ol] | 1000 to 10000 | < 250 |

From patent US20230340011A1 (Asteroid Therapeutics, priority 2022, published 2023)
